# According to publication PMC3923716 (PLoS Neglected Tropical Diseases, 2014):
# “And” between values parts separate entries of the source, which are not always exact repeats. Equal values may be shown once. Marks after values point to notes of the source that are not given here.
# Tests used:
# B. pahangi Hsp90 = biological target: T1, B. pahangi Hsp90 (Brugia pahangi, UniProt O61998); experiment: Competition FP assay (displacement of Cy3B-GA), B. pahangi lysate; assay type: binding; details: FP assay; best fit (95% confidence intervals); read-out: B. pahangi IC50
# T1 construct: Adult worms of B. pahangi were obtained from infected jirds; from tissue; host or cells: whole adult B. pahangi worms, ground and lysed in HFB buffer
# Experimental: Adult worms of B. pahangi were obtained from infected jirds after 3–4 months, exactly as described previously and were frozen in liquid nitrogen, ground in a pestle and mortar to a fine powder and re-suspended in an appropriate volume of HFB assay buffer (20 mM HEPES, pH 7.3, 50 mM KCl, 5 mM MgCl2, 20 mM Na2MoO4, 1% NP40). Protein concentrations were estimated using the BioRad protein assay. At this point lysates were freeze-dried for shipping to the USA.
# (§1) The FP assay was set up essentially as described previously, [25]. […] The equilibrium binding of Cy3B-GA and recombinant human Hsp90α (Enzo Life Sciences, Farmingdale, NY USA) or parasite lysate was determined by creating a two-fold dilution series of protein/extract for an eleven-point curve with the first column containing no protein. […] All FP values are expressed in millipolarization (mP) units with the mP value of free Cy3B-GA probe set to 50. Equilibrium binding constants were determined by nonlinear regression using a one-site binding model (GraphPad Prism software).
# (§2) The relative binding affinities of inhibitors to human or parasite-derived Hsp90 was determined using competitive FP binding assays. […] For parasite-derived Hsp90, an amount of parasite lysate resulting in 50% of maximal Cy3B-GA binding was used. […] Stock solutions of each compound were prepared in DMSO at a concentration of 10 mM and 3-fold serial dilutions prepared in DMSO for eleven point curves. […] The final concentration of Cy3B-GA was 6 nM and the final DMSO concentration in all wells was 0.5%. Free Cy3B-GA (mP set to 50) and buffer only (background) wells were included as controls on each plate. Plates were incubated at 8°C with gentle shaking for 20 h.
# B. malayi Hsp90 = B. malayi Hsp90 (Brugia malayi, UniProt A0A0H5S7Y7); experiment: Competition FP assay (displacement of Cy3B-GA), B. malayi lysate; assay type: binding; details: best fit (95% confidence intervals), read-out: B. malayi IC50
# Experimental: as §1, §2
# Brugia Hsp90 = experiment: Competition FP assay, Brugia Hsp90 (species not separated); assay type: binding; details: read-out: IC50 for binding to Brugia Hsp90
# Experimental: as §1, §2
# [1] = test system: B. pahangi Mf (microfilariae); experiment: Mf viability in vitro; assay type: cell-based, Brugia pahangi; details: Mf
# Experimental: As adult Brugia worms are limited in numbers, initial experiments assessed the effect of each drug on Mf viability. Mf were purified from infected animals essentially as described previously. In brief, following lavage of the peritoneal cavity of an infected animal with Hanks Balanced Salt Solution (HBSS) pre-warmed to 37°C, Mf were collected by centrifugation and then purified from host cells by centrifugation through lymphoprep (Sigma). This procedure was repeated twice. Mf were collected from the pellet, washed twice in HBSS and once in worm culture medium (WCM) which comprised RPMI 1640, (Invitrogen Cat No: 52400), containing 5% heat inactivated fetal calf serum, 1% glucose, 100 units/ml penicillin and 100 µg/ml streptomycin (all Invitrogen). Mf were then dispensed into the wells of a 24-well plate to give approximately 200 Mf in 2.0 ml, using a single well for each drug concentration. All procedures were carried out using aseptic techniques. The five novel compounds, plus GA and medium alone controls, were tested three times against Mf over the full range of concentrations.
# adult female B. pahangi [2] = experiment: Adult female worm assay in vitro (Mf output and adult viability), continuous exposure; assay type: cell-based, Brugia pahangi
# Experimental: For adult worm assays, adult female B. pahangi, 3–4 months old, were incubated individually in 2.0 ml of WCM overnight in 24-well plates and pre-screened for Mf production. […] For the drug experiments, six female worms of B. pahangi for each concentration of drug were cultured individually in 24-well plates in 2.0 ml of WCM containing drug, or carrier alone (DMSO) at a concentration equal to that in the highest concentration of drug. In some experiments, GA was used as a positive control. Initially, all five compounds were tested over selected concentrations starting at 2 µM to 100 nM (see Results for details). For Hsp90 inhibitors, Mf output by individual female worms is a sensitive indicator of adult worm viability and, in most experiments, was assessed at 72 h. In addition, adult worms were examined microscopically on a daily basis for 7–10 days to determine whether lower concentrations of drugs had any effects over a longer period of incubation. Results are expressed as mean Mf output ± SD over a 72 h period. Statistical significance between groups was calculated using the Mann Whitney test with P values<0.05 being considered significant.
# male worms (B. pahangi) = experiment: Adult male worm exposure in vitro; assay type: cell-based, Brugia pahangi; details: 100 nM, day 7 of exposure
# Experimental: The remaining worms although alive, were extremely sluggish. […] Worms that were dying tended to burst and release their uterine contents and wells contained many embryonic stages in addition to Mf. […] By day 7 of exposure 100% of male worms exposed to 100 nM drug were dead.
# L3 stage of B. pahangi = experiment: L3 viability in vitro; assay type: cell-based, Brugia pahangi; details: 6 days exposure
# Experimental: L3 stages were harvested from mosquitoes nine days post-infection. L3 were picked individually with a fine glass pipette, counted and washed three times in HBSS containing 1000 units/ml of penicillin and 1000 µg/ml streptomycin by sedimentation at room temperature. 20–30 L3 per well were plated out in duplicate in 24-well plates in 2.0 ml of WCM containing drug, or carrier alone (DMSO) and cultured at 37°C for up to 7 days. […] This experiment was repeated twice.
# adult female B. pahangi [3] = experiment: Short 24 h exposure of adult female worms, then medium alone; assay type: cell-based, Brugia pahangi; details: for mean Mf production: 24 h in drug and 24 h in medium alone; for lowest concentration with significantly fewer Mf: 250, 25, 10 nM tested
# [4] = test system: adult female B. pahangi and Mf; experiment: In vivo testing: adult female worms transplanted into the peritoneal cavity of BALB/c mice; design: species or system BALB/c mouse; details: 50 mg/Kg i.p. at day 0, 3 and 7
# Source text: Adult worms were removed from the peritoneal cavity of infected jirds and rinsed in HBSS. 10 adult female worms were transplanted into the peritoneal cavity of each of ten male BALB/c mouse using standard methods, [28]. Adult worms were transferred into the peritoneal cavity of anaesthetized mice using a blunted glass hook. Not all mice received the full quota of 10 worms (see Table 1). […] This dose was selected on the basis of previous studies in a mouse xenograft model. […] The condition of any adult worms recovered was noted. Mf in the first 12 ml of peritoneal washings were pelleted by centrifugation and fixed in 2% formalin in water and stored at 4°C until counted. Mice were weighed at each time point to monitor any possible weight loss.
# [5] = single dose of 50 mg/Kg, intra-peritoneal route; cited from earlier work
# [6] = recovery 9 days after last dose
smiles,measurement,setting,value
CCNC(=O)c1noc(-c2cc(C(C)C)c(O)cc2O)c1-c1ccc(CN2CCOCC2)cc1 [NVP-AUY922],IC50,B. pahangi Hsp90,640 pM
same,IC50,B. malayi Hsp90,950 pM
same,IC50,Brugia Hsp90,~1000 pM
same,% death by day 7,[1]; 0.976 nM,75%
same,% death by day 7,[1]; 1.95 nM,100%
same,adult worm survival at lower concentrations,"adult female B. pahangi [2]; 10 and 5.0 nM, motility affected",did not die
same,lowest concentration with significant inhibitory effect on Mf output,"adult female B. pahangi [2]; 72 h exposure, titrated 500 nM to 1.0 nM",10 nM
same,adult worms killed,"adult female B. pahangi [2]; 6 days exposure, 25 nM",50%
same,adult worms dead,"adult female B. pahangi [2]; 6 days exposure, 25 nM, typical experiment",3/6
same,adult worms dead,"adult female B. pahangi [2]; 6 days exposure, 50 nM, typical experiment",4/6
same,adult worms dead,"adult female B. pahangi [2]; 6 days exposure, 100 nM and above",all adult worms were dead
same,lowest concentration with significant decrease in Mf output,"adult female B. pahangi [2]; 6 days exposure, not significant at 1.0 nM",5.0 nM and 5 nM
same,concentration with significant effect on Mf output,"adult female B. pahangi [2]; initial screen 2.0 µM to 100 nM, adult female worms",≤ 100 nM
same,male worms dead,male worms (B. pahangi),100%
same,effect on L3,L3 stage of B. pahangi; 1 nM or below,no effect
same,L3 dead,"L3 stage of B. pahangi; 5.0 nM, remainder moving very slowly",approximately 30%
same,L3 dead,L3 stage of B. pahangi; all concentrations down to and including 10 nM,100%
same,mean Mf production,"adult female B. pahangi [3]; 10 nM, not significant vs DMSO",910±674 Mf
same,mean Mf production,adult female B. pahangi [3]; 25 nM,100±60 Mf
same,mean Mf production,adult female B. pahangi [3]; 250 nM,11±23 Mf
same,condition of adult worms,"adult female B. pahangi [3]; 24 h exposure to 10 nM, day 9, vs DMSO controls",no obvious difference
same,condition of adult worms,"adult female B. pahangi [3]; 24 h exposure to 25 nM, day 9",noticeably more sluggish than control worms
same,condition of adult worms,"adult female B. pahangi [3]; 24 h exposure to 250 nM, 9 days in medium alone","barely moving, but they were still alive"
same,lowest concentration with significantly fewer Mf,adult female B. pahangi [3]; 24 h in drug and 48 h in medium alone,10 nM
same,lowest concentration with significantly fewer Mf,adult female B. pahangi [3]; after 24 h in drug,25 nM
same,Mean no Mf per mouse,[4]; first 12 ml of peritoneal washings,4730±5101
same,recovery of live worms,[4]; range over treated mice,0–11%
same,Total number worms recovered,[4]; recovered/transplanted,8/48 ^**
same,No. mice with live Mf,[4]; [6],2/5
same,No. mice with viable worms,[4]; [6],2/5
same,No. mice with worms,[4]; [6],5/5
same,No. viable worms recovered,[4]; [6],2
same,viable worms recovered (mean % ± SD),[4]; [6],4.4±6.0%
same,time of maximum plasma level post-dosing,[5],0.25 h
